{"source": "paper PMC2120106", "about": "(The Journal of Cell Biology, 1994)", "key": {"G-proteins": {"system": "G-proteins", "conditions": "cited from earlier work; for stimulation of G-proteins in vitro: ref Oppi et al., 1992"}, "[1]": {"system": "vacuole-to-vacuole fusion", "assay": "in vitro vacuole-to-vacuole fusion assay", "assay_type": "biochemical, Saccharomyces cerevisiae", "conditions": "for effect on in vitro vacuole-to-vacuole fusion (in words): added to standard reaction, Figs. 5, 7 A or data not shown; for effect on inter-vacuole fusion: Fig. 7 A"}, "isolated vacuoles": {"system": "isolated vacuoles", "assay": "microscopic in vitro fusion assay with CDCFDA-labeled vacuoles", "set-up": "species or system Saccharomyces cerevisiae", "conditions": "standard fusion reaction, 120 min; for vacuole fusion / morphology seen by fluorescence microscopy: 20 uM, Fig. 6 D, E, G, H"}}}
{"molecule": "NILALAKALIKALK-NH2 [mas-PEP8]", "values": [{"measurement": "stimulation of G-proteins in vitro", "setting": "G-proteins", "result": "potent G-protein activators"}]}
{"molecule": "Triton X-100", "values": [{"measurement": "influence on the inhibition of fusion by mastoparan", "setting": "[1]; 0-30 ug/ml plus 20 uM mastoparan, Fig. 8", "result": "did not influence the effects of mastoparan on fusion"}, {"measurement": "fusion in standard fusion reactions", "setting": "[1]; added at 0.01%, data not shown", "result": "no fusion could be observed"}, {"measurement": "effect on vacuole fusion", "setting": "[1]; detergent control, up to highest concentration tested, 30 ug/ml, Fig. 8", "result": "did not inhibit vacuole fusion"}]}
{"molecule": "Lithium", "values": [{"measurement": "effect on in vitro vacuole-to-vacuole fusion (in words)", "setting": "[1]; 25C, 120 min", "result": "did not influence the fusion reactions"}]}
{"molecule": "N#CC(C#N)=NNc1cccc(Cl)c1", "note": "[CCCP, carbonyl cyanide m-chlorophenyl-hydrazone]", "values": [{"measurement": "effect on in vitro vacuole-to-vacuole fusion (in words)", "setting": "[1]; 25C, 120 min", "result": "inhibited vacuole fusion in vitro"}, {"measurement": "vacuole fusion / morphology seen by fluorescence microscopy", "setting": "isolated vacuoles", "result": "blocked vacuole fusion"}]}
{"molecule": "NC[C@@H]1O[C@H](O[C@H]2[C@@H](O)[C@H](O[C@@H]3[C@@H](O)[C@H](N)C[C@H](N)[C@H]3O[C@H]3O[C@H](CN)[C@@H](O)[C@H](O)[C@H]3N)O[C@@H]2CO)[C@H](N)[C@@H](O)[C@@H]1O", "note": "[Neomycin]", "values": [{"measurement": "concentration that blocks inter-vacuole fusion", "setting": "[1]; standard reaction, 25C, 120 min, Fig. 5 A", "result": 0.2, "unit": "mM"}, {"measurement": "vacuole fusion seen by fluorescence microscopy", "setting": "isolated vacuoles; 0.6 mM, Fig. 6 C", "result": "blocked vacuole fusion"}]}
{"molecule": "F", "note": "[fluoride]", "values": [{"measurement": "effect on in vitro vacuole-to-vacuole fusion (in words)", "setting": "[1]; 25C, 120 min", "result": "inhibitory"}]}
{"molecule": "benzalkonium chloride [BAC]", "values": [{"measurement": "concentration of maximal inhibition of inter-vacuolar fusion", "setting": "[1]; alone in standard fusion assay, Fig. 8", "result": "10 #g/ml"}]}
{"molecule": "LKIALNLKALIAAK-NH2 [MAS-PEP2]", "values": [{"measurement": "stimulation of G-proteins in vitro", "setting": "G-proteins", "result": "do not stimulate G-proteins in vitro"}, {"measurement": "effect on in vitro vacuole-to-vacuole fusion (in words)", "setting": "[1]; 25C, 120 min", "result": "inactive in the fusion assay"}]}
{"molecule": "CO/C1=C\\C(C)=C\\[C@@H](C)[C@@H](O)[C@@H](C)C/C(C)=C/C=C/[C@H](OC)[C@@H]([C@@H](C)[C@@H](O)[C@H](C)[C@@]2(O)C[C@@H](O)[C@H](C)[C@@H](C(C)C)O2)OC1=O", "note": "[bafilomycin Al]", "values": [{"measurement": "effect on in vitro vacuole-to-vacuole fusion (in words)", "setting": "[1]; 25C, 120 min", "result": "inhibited vacuole fusion in vitro"}, {"measurement": "vacuole fusion / morphology seen by fluorescence microscopy", "setting": "isolated vacuoles", "result": "blocked vacuole fusion"}]}
{"molecule": "LNAKLKAIALALIK-NH2 [mas-PEP7]", "values": [{"measurement": "stimulation of G-proteins in vitro", "setting": "G-proteins", "result": "do not stimulate G-proteins in vitro"}, {"measurement": "effect on in vitro vacuole-to-vacuole fusion (in words)", "setting": "[1]; 25C, 120 min", "result": "inactive in the fusion assay"}]}
{"molecule": "Nc1nc2c(ncn2[C@@H]2O[C@H](COP(=O)(O)OP(=O)(O)OP(O)(O)=S)[C@@H](O)[C@H]2O)c(=O)[nH]1", "note": "[GTP3,S, Guanosine 5'-0-(3-thiotriphosphate)]", "values": [{"measurement": "vacuole fusion seen by fluorescence microscopy", "setting": "isolated vacuoles; 1.0 mM, Fig. 6 F", "result": "fusion was largely inhibited"}]}
{"molecule": "mastoparan", "values": [{"measurement": "effect on in vitro vacuole-to-vacuole fusion (in words)", "setting": "[1]; 25C, 120 min", "result": "inhibited"}]}
{"molecule": "INLQALALAALAQALL-NH2 [Mas7[Q4;Q11]]", "values": [{"measurement": "stimulation of G-proteins", "setting": "G-proteins; ref Higashijima, T., personal communication", "result": "does not stimulate G-proteins"}, {"measurement": "relief of the inhibition caused by mas7", "setting": "[1]; both compounds added together, data not shown", "result": "did not relieve"}, {"measurement": "effect on inter-vacuole fusion", "setting": "[1]; concentrations up to 50 uM, standard reaction", "result": "did not inhibit"}, {"measurement": "effect on inter-vacuole fusion", "setting": "[1]; very high concentration, 100 uM, standard reaction", "result": "did inhibit"}, {"measurement": "vacuole fusion / morphology seen by fluorescence microscopy", "setting": "isolated vacuoles", "result": "only a weak influence"}]}
